Counter-ions that a name gives are not always drawn.
Target: T1, rat histamine H3 receptors (Rattus norvegicus, UniProt Q9QYN8)
T1 construct: Frozen rat frontal brain or frozen human post-mortem frontal brain is homogenized; from tissue; host or cells: rat frontal brain membranes
Assay: Rat Histamine H3 Receptor Binding
Settings: rat frontal brain membranes; radioligand 3H-N-methyl-histamine 1 nM; 1 hour incubation; read-out: rH3 Ki
Protocol: The in vitro affinity of the compounds in the present invention at the rat or human histamine H3 receptors can be determined according to the following procedure. Frozen rat frontal brain or frozen human post-mortem frontal brain is homogenized in 20 volumes of cold 50 mM Tris HCl containing 2 mM MgCl2 (pH to 7.4 at 4° C.). The homogenate is then centrifuged at 45,000 G for 10 minutes. The supernatant is decanted and the membrane pellet resuspended by Polytron in cold 50 mM Tris HCl containing 2 mM MgCl2 (pH to 7.4 at 4° C.) and centrifuged again. The final pellet is resuspended in 50 mM Tris HCl containing 2 mM MgCl2 (pH to 7.4 at 25° C.) at a concentration of 12 mg/mL. Dilutions of compounds are made in 10% DMSO/50 mM Tris buffer (pH 7.4) (at 10× final concentration, so that the final DMSO concentration is 1%). Incubations are initiated by the addition of membranes (200 microliters) to 96 well V-bottom polypropylene plates containing 25 microliters of drug dilutions and 25 microliters of radioligand (1 nM final concentration 3H—N-methyl-histamine). After a 1 hour incubation, assay samples are rapidly filtered through Whatman GF/B filters and rinsed with ice-cold 50 mM Tris buffer (pH 7.4) using a Skatron cell harvester. Radioactivity is quantified using a BetaPlate scintillation counter. The percent inhibition of specific binding can then be calculated.

T1 sequence (Q9QYN8 whole entry): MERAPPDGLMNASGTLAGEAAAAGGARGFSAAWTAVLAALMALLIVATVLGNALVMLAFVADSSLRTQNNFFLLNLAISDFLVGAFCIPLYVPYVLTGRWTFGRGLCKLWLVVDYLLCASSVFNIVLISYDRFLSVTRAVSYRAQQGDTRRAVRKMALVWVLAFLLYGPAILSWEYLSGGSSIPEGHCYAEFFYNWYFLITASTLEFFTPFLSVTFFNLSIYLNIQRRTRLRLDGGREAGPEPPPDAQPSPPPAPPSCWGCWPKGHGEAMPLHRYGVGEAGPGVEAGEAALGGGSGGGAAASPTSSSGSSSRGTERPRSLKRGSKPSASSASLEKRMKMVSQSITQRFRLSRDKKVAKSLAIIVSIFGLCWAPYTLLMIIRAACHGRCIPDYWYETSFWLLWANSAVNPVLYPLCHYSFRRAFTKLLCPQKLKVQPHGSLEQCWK

| Ki [nM] | SMILES |
| --- | --- |
| 24.1 | CC(C)CNC(=O)C1CC(F)(c2cc(Cl)c(CN3CCCC3)cc2F)C1 (mixture of isomers) [Example 11, 3-(5-Chloro-2-fluoro-4-pyrrolidin-1-ylmethyl-phenyl)-3-fluoro-cyclobutanecarboxylic acid isobutyl-amide] |
| 32.3 | CN(CC1CC1)C(=O)C1CC(F)(c2ccc(CN3CCCC3)c(Cl)c2)C1 (mixture of isomers) [Example 50, 3-(3-Chloro-4-pyrrolidin-1-ylmethyl-phenyl)-3-fluoro-cyclobutanecarboxylic acid cyclopropylmethyl-methyl-amide] |
| 10.1 | CC(C)CNC(=O)C1CC(F)(c2ccc(CN3CCCC3)c(F)c2)C1 (single isomer, unassigned) [Example 55, 3-Fluoro-3-(3-fluoro-4-pyrrolidin-1-ylmethyl-phenyl)-cyclobutanecarboxylic acid isobutyl-amide] |
| 18.9 | O=C(C1CC(F)(c2ccc(CN3CCCC3)c(F)c2)C1)N1CCCC1 (stereo not drawn) [Example 9, N-{2-fluoro-4-[1-fluoro-3-(pyrrolidin-1-ylcarbonyl)cyclobutyl]benzyl}-pyrrolidine hydrochloride] |
| 10.1 | CCNC(=O)C1CC(c2ccc(CN3CCCC3)c(F)c2)C1 (stereo not drawn) [Example 13, 3-(3-Fluoro-4-pyrrolidin-1-ylmethyl-phenyl)-cyclobutanecarboxylic acid ethylamide] |
| 20.7 | CCNC(=O)C1CC(F)(c2ccc(CN3CCCC3)c(F)c2)C1 (stereo not drawn) [Example 16, 3-Fluoro-3-(3-fluoro-4-pyrrolidin-1-ylmethyl-phenyl)-cyclobutanecarboxylic acid ethylamide] |
| 28.8 | CCN(C)C(=O)C1CC(F)(c2ccc(CN3CCCC3)c(F)c2)C1 (stereo not drawn) [Example 23, 3-Fluoro-3-(3-fluoro-4-pyrrolidin-1-ylmethyl-phenyl)-cyclobutanecarboxylic acid ethyl-methyl-amide] |
| 10.9 | O=C(NCC1CC1)C1CC(F)(c2ccc(CN3CCCC3)c(Cl)c2)C1 (stereo not drawn) [Example 46, 3-(3-Chloro-4-pyrrolidin-1-ylmethyl-phenyl)-3-fluoro-cyclobutanecarboxylic acid cyclopropylmethyl-amide] |
| 21.4 | CCNC(=O)C1CC(F)(c2ccc(CN3CCC[C@@H]3C)c(F)c2)C1 (stereo partly drawn) [Example 59, 3-Fluoro-3-[3-fluoro-4-((S)-2-methyl-pyrrolidin-1-ylmethyl)-phenyl]-cyclobutanecarboxylic acid ethylamide] |

Source: patent US8389743B2, “Histamine-3 receptor antagonists” (Pfizer Inc., priority 2005, dated 2013)
